Structures can show the parent of a compound that is named as a salt. Where two headings read alike, the source gives them in different places.
How the values were obtained:
[1] = biological target: T1, SARS-CoV-2 PLpro (nsp3 1564–1878) (Severe acute respiratory syndrome coronavirus 2, UniProt P0DTD1); test: biochemical; design: FRET-quenched peptide (Pro3) cleavage by PLpro, 10 min pre-incubation, slope over 20 min, normalised to no-compound control; settings: low concentration screen, read-out: % of control remaining
[2] = biological target: T1, SARS-CoV-2 PLpro (nsp3 1564–1878); test: biochemical; design: FRET-quenched peptide (Pro3) cleavage by PLpro, 10 min pre-incubation, slope over 20 min, normalised to no-compound control; settings: high concentration screen, read-out: % of control remaining

Which remaining activity at 1.25 µM ([1]; Well no.=3801) does the source give for `CSC(=S)NCc1c[nH]c2ccccc12` [Brassinin] here?
The remaining activity at 1.25 µM was 101%.

What about the remaining activity at 3.75 µM ([2]; Well no.=3801) of the same molecule?
Its remaining activity at 3.75 µM is 101%.

Which remaining activity at 1.25 µM ([1]; Well no.=925) does the source give for `O=C(c1ccccc1)c1ccc2n1CCC2C(=O)O` (centres unmarked) [Ketorolac tris salt] here?
Its remaining activity at 1.25 µM is 108%.

And the remaining activity at 3.75 µM ([2]; Well no.=925)?
Its remaining activity at 3.75 µM is 103%.

What does the source list for `COc1cc2c(cc1OC)[C@H]1CC(=O)[C@H](CC(C)C)CN1CC2` [(3R,11bR)-3-isobutyl-9,10-dimethoxy-1,3,4,6,7,11b-hexahydro-2H-pyrido[2,1-a]isoquinolin-2-one]?
remaining activity at 1.25 µM ([1]; Well no.=5582): 93.7%; remaining activity at 3.75 µM ([2]; Well no.=5582): 98.6%

`C[C@H](N)[C@H](O)c1cccc(O)c1` [Metaraminol (tartrate)] was tested. Which remaining activity at 1.25 µM ([1]; Well no.=6417) did it give?
Its remaining activity at 1.25 µM is 103%.

And the remaining activity at 3.75 µM ([2]; Well no.=6417)?
Its remaining activity at 3.75 µM is 99.6%.

What does the source list for `COc1cc2c(c(OC)c1OC)-c1c(cc(OC)c(OC)c1OC)C[C@H](C)[C@H](C)C2` [R(+)-Schisandrin A]?
remaining activity at 1.25 µM ([1]; Well no.=3741): 91.7%; remaining activity at 3.75 µM ([2]; Well no.=3741): 93.8%

How did the remaining activity at 1.25 µM ([1]; Well no.=331) turn out when `CCCNC(=O)NS(=O)(=O)c1ccc(Cl)cc1` [Chlorpropamide] was run?
Its remaining activity at 1.25 µM is 96.9%.

What about the remaining activity at 3.75 µM ([2]; Well no.=331) of the same molecule?
Its remaining activity at 3.75 µM is 97.8%.

What does the source list for `c1ccc(NCc2ccc(CNc3ccccn3)cc2)nc1` [WZ 811]?
remaining activity at 1.25 µM ([1]; Well no.=4843): 100%; remaining activity at 3.75 µM ([2]; Well no.=4843): 102%

How did the remaining activity at 1.25 µM ([1]; Well no.=2381) turn out when `COc1cc(Nc2ncc3ccn(-c4cccc(CCC#N)c4)c3n2)cc(OC)c1OC` [Casein Kinase II Inhibitor IV] was run?
Its remaining activity at 1.25 µM is 104%.

What about the remaining activity at 3.75 µM ([2]; Well no.=2381) of the same molecule?
Its remaining activity at 3.75 µM is 105%.

For `CNC(=O)Nc1ccc(-c2nc(N3CC4CCC(C3)O4)c3cnn(C4CCC5(CC4)OCCO5)c3n2)cc1` [WYE-125132], which remaining activity at 1.25 µM ([1]; Well no.=4641) is on record?
The remaining activity at 1.25 µM was 99.8%.

And the remaining activity at 3.75 µM ([2]; Well no.=4641)?
Its remaining activity at 3.75 µM is 104%.

Which remaining activity at 1.25 µM ([1]; Well no.=321) does the source give for `CC[N+](C)(C)Cc1ccccc1Br` [Bretylium tosylate] here?
Its remaining activity at 1.25 µM is 103%.

And the remaining activity at 3.75 µM ([2]; Well no.=321)?
Its remaining activity at 3.75 µM is 101%.

For `O=C(O)/C=C/C=C/C(=O)O` [trans-trans-Muconic acid], which remaining activity at 1.25 µM ([1]; Well no.=6589) is on record?
The remaining activity at 1.25 µM was 103%.

And the remaining activity at 3.75 µM ([2]; Well no.=6589)?
The remaining activity at 3.75 µM was 106%.

For `COc1ccc(C(=O)O[C@H]2CC[C@@]3(C)[C@@H]4CC[C@H]5[C@]6(O)C[C@H](O)[C@@]7(O)[C@@H](CN8C[C@@H](C)CC[C@H]8[C@@]7(C)O)[C@]6(O)C[C@@]53O[C@]24O)cc1OC` [Veratridine], which remaining activity at 1.25 µM ([1]; Well no.=3222) is on record?
The remaining activity at 1.25 µM was 99.9%.

What about the remaining activity at 3.75 µM ([2]; Well no.=3222) of the same molecule?
The remaining activity at 3.75 µM was 101%.

Which results are given for `CNCC[C@@H](Oc1ccc(C(F)(F)F)cc1)c1ccccc1` [R-(-)-Fluoxetine hydrochloride]?
remaining activity at 1.25 µM ([1]; Well no.=419): 92.7%; remaining activity at 3.75 µM ([2]; Well no.=419): 92.4%

For `O=c1ncccn1[C@@H]1O[C@H](CO)[C@@H](O)[C@H]1O` [Zebularine], which remaining activity at 1.25 µM ([1]; Well no.=7818) is on record?
The remaining activity at 1.25 µM was 97%.

And the remaining activity at 3.75 µM ([2]; Well no.=7818)?
Its remaining activity at 3.75 µM is 96.3%.

`Brc1c(NC2=NCCN2)ccc2nccnc12` [UK 14,304] was tested. Which remaining activity at 1.25 µM ([1]; Well no.=1238) did it give?
The remaining activity at 1.25 µM was 98.9%.

And the remaining activity at 3.75 µM ([2]; Well no.=1238)?
The remaining activity at 3.75 µM was 97.9%.

With `C=C1C[C@H]2[C@@H]3C=C(C)C4=CC(=O)CC[C@]4(C)[C@H]3CC[C@]2(C)[C@@]1(OC(C)=O)C(C)=O` [Melengestrol Acetate] as the molecule, how does the remaining activity at 1.25 µM ([1]; Well no.=2238) read?
The remaining activity at 1.25 µM was 99.1%.

And the remaining activity at 3.75 µM ([2]; Well no.=2238)?
Its remaining activity at 3.75 µM is 99.4%.

`CC(N)(COP(=O)(O)O)C(=O)O` (centres unmarked) [2-methyl-O-phosphonoserine] was tested. Which remaining activity at 1.25 µM ([1]; Well no.=5427) did it give?
The remaining activity at 1.25 µM was 96.2%.

What about the remaining activity at 3.75 µM ([2]; Well no.=5427) of the same molecule?
The remaining activity at 3.75 µM was 101%.

How did the remaining activity at 1.25 µM ([1]; Well no.=7155) turn out when `Oc1ccc2ccccc2c1` [2-Naphthol] was run?
Its remaining activity at 1.25 µM is 103%.

And the remaining activity at 3.75 µM ([2]; Well no.=7155)?
The remaining activity at 3.75 µM was 99.5%.

`CC(C)(C)c1ccc(S(=O)(=O)/C=C/C#N)cc1` [Bay 11-7085] was tested. Which remaining activity at 1.25 µM ([1]; Well no.=127) did it give?
Its remaining activity at 1.25 µM is 105%.

And the remaining activity at 3.75 µM ([2]; Well no.=127)?
Its remaining activity at 3.75 µM is 105%.

For `CCCCC[C@H](O)/C=C/C=C\C=C\[C@@H](O)C/C=C\CCCC(=O)O` [8(S),15(S)-DIHETE], which remaining activity at 1.25 µM ([1]; Well no.=4371) is on record?
The remaining activity at 1.25 µM was 102%.

And the remaining activity at 3.75 µM ([2]; Well no.=4371)?
Its remaining activity at 3.75 µM is 99.4%.

How did the remaining activity at 1.25 µM ([1]; Well no.=7279) turn out when `CC(C(=O)Nc1cc(C#N)ccc1CCCC(=O)O)c1ccc(F)c2ccccc12` (centres unmarked) [ONO-AE3-208] was run?
Its remaining activity at 1.25 µM is 98.9%.

And the remaining activity at 3.75 µM ([2]; Well no.=7279)?
Its remaining activity at 3.75 µM is 94.1%.

What does the source list for `COc1cc(NC(C)CCCN)c2ncccc2c1` (centres unmarked) [Primaquine]?
remaining activity at 1.25 µM ([1]; Well no.=2153): 97.8%; remaining activity at 3.75 µM ([2]; Well no.=2153): 98.9%

`O=C(O)[C@]1(Cc2cccc(Nc3nccs3)n2)CC[C@@H](Oc2cccc(Cl)c2F)CC1` [MK-5108 (VX-689)] was tested. Which remaining activity at 1.25 µM ([1]; Well no.=4733) did it give?
The remaining activity at 1.25 µM was 101%.

What about the remaining activity at 3.75 µM ([2]; Well no.=4733) of the same molecule?
The remaining activity at 3.75 µM was 97.2%.

How did the remaining activity at 1.25 µM ([1]; Well no.=4975) turn out when `C1N2CN3CN1CN(C2)C3` [Methenamine (Mandelamine)] was run?
The remaining activity at 1.25 µM was 96.3%.

What about the remaining activity at 3.75 µM ([2]; Well no.=4975) of the same molecule?
The remaining activity at 3.75 µM was 96.7%.

Which remaining activity at 1.25 µM ([1]; Well no.=7083) does the source give for `Cc1nc(C(=O)N2CCC[C@H]2Cc2nnc(-c3ccccc3)o2)c(-c2ccccc2F)s1` [SB-674042] here?
The remaining activity at 1.25 µM was 102%.

And the remaining activity at 3.75 µM ([2]; Well no.=7083)?
The remaining activity at 3.75 µM was 98.9%.

With `COc1cc2c3cc1Oc1c(OC)c(OC)cc4c1[C@@H](Cc1ccc(O)c(c1)Oc1ccc(cc1)C[C@@H]3N(C)CC2)N(C)CC4` as the molecule, how does the remaining activity at 1.25 µM ([1]; Well no.=3633) read?
The remaining activity at 1.25 µM was 103%.

And the remaining activity at 3.75 µM ([2]; Well no.=3633)?
Its remaining activity at 3.75 µM is 103%.

Which remaining activity at 1.25 µM ([1]; Well no.=5102) does the source give for `N[C@@H](CSCCCO)C(=O)O` [Fudosteine] here?
The remaining activity at 1.25 µM was 100%.

What about the remaining activity at 3.75 µM ([2]; Well no.=5102) of the same molecule?
Its remaining activity at 3.75 µM is 102%.

What does the source list for `CCCCC1C(=O)N(c2ccccc2)N(c2ccccc2)C1=O` [Phenylbutazone]?
remaining activity at 1.25 µM ([1]; Well no.=1303): 102%; remaining activity at 1.25 µM ([1]; Well no.=2105): 101%; remaining activity at 3.75 µM ([2]; Well no.=1303): 99.3%; remaining activity at 3.75 µM ([2]; Well no.=2105): 101%

Which results are given for `CC(N)C(=O)OC(C)(C)Cc1ccc(Cl)cc1` (centres unmarked) [Alaproclate hydrochloride]?
remaining activity at 1.25 µM ([1]; Well no.=208): 102%; remaining activity at 3.75 µM ([2]; Well no.=208): 102%

Which remaining activity at 1.25 µM ([1]; Well no.=7353) does the source give for `O=C(O)CCC(=O)O` [Succinic acid] here?
Its remaining activity at 1.25 µM is 106%.

And the remaining activity at 3.75 µM ([2]; Well no.=7353)?
The remaining activity at 3.75 µM was 106%.

With `CC1=C(CC(=O)O)c2cc(F)ccc2/C1=C\c1ccc([S+](C)[O-])cc1` (centres unmarked) [Sulindac] as the molecule, how does the remaining activity at 1.25 µM ([1]; Well no.=1270) read?
Its remaining activity at 1.25 µM is 102%.

And the remaining activity at 1.25 µM ([1]; Well no.=1756)?
The remaining activity at 1.25 µM was 98.1%.

And the remaining activity at 3.75 µM ([2]; Well no.=1270)?
The remaining activity at 3.75 µM was 105%.

And the remaining activity at 3.75 µM ([2]; Well no.=1756)?
The remaining activity at 3.75 µM was 96.7%.

With `COC(=O)[C@H](CC(C)C)NC(=O)c1ccc(NC[C@@H](N)CS)cc1-c1cccc2ccccc12` [GGTI298 Trifluoroacetate] as the molecule, how does the remaining activity at 1.25 µM ([1]; Well no.=8456) read?
Its remaining activity at 1.25 µM is 97.5%.

And the remaining activity at 3.75 µM ([2]; Well no.=8456)?
Its remaining activity at 3.75 µM is 86.9%.

What does the source list for `CC(C)NCC(O)c1ccc(O)c(O)c1` (stereo not drawn) [S(+)-Isoproterenol (+)-bitartrate]?
remaining activity at 1.25 µM ([1]; Well no.=823): 102%; remaining activity at 3.75 µM ([2]; Well no.=823): 105%

Which results are given for `CN(C)CCN(C)CCc1ccc(Cl)c(Cl)c1` [BD-1047 (dihydrobromide)]?
remaining activity at 1.25 µM ([1]; Well no.=7287): 95.4%; remaining activity at 3.75 µM ([2]; Well no.=7287): 97.8%

Which results are given for `C[C@]12C=CC(=O)C=C1CC[C@@H]1C2=CC[C@]2(C)[C@@H](C(=O)CN3CCN(c4cc(N5CCCC5)nc(N5CCCC5)n4)CC3)CC[C@@H]12` [U74389G maleate]?
remaining activity at 1.25 µM ([1]; Well no.=3905): 103%; remaining activity at 3.75 µM ([2]; Well no.=3905): 98.2%

Source: article PMC8286840, “Identifying SARS-CoV-2 antiviral compounds by screening for small molecule inhibitors of Nsp3 papain-like protease” (Biochemical Journal, 2021)
